Measurements published in PubChem BioAssay (NCI).
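The compound was tested at five concentrations on cells cultured in 96-well plates, with a 48-hour exposure period. Abbreviation: GI50, concentration required for 50% inhibition of growth. TGI is the concentration that stops growth completely.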

Key:
Assay in all cases: NCI tumour cell line growth inhibition, 48 h
SN12K1 renal = tested on: SN12K1 renal
NCI/ADR-RES ovarian = tested on: NCI/ADR-RES ovarian
M19-MEL melanoma = tested on: M19-MEL melanoma
XF 498 CNS = tested on: XF 498 CNS
P388/ADR leukemia = tested on: P388/ADR leukemia
P388 leukemia = tested on: P388 leukemia
LXFL 529 NSCLC = tested on: LXFL 529 NSCLC
RXF-631 renal = tested on: RXF-631 renal

CCOC(=O)NC(=O)c1cn(CCN(CCO)C(=O)NCCCCCCNC(=O)N(CCO)CCn2cc(C(=O)NC(=O)OCC)c(=O)[nH]c2=O)c(=O)[nH]c1=O
TGI (SN12K1 renal): > 100 µM
TGI (NCI/ADR-RES ovarian): > 100 µM
TGI (M19-MEL melanoma): > 100 µM
TGI (XF 498 CNS): > 100 µM
TGI (P388/ADR leukemia): > 100 µM
TGI (P388 leukemia): > 100 µM

N/C(=C\c1ccc(/C=C(\NC(=O)c2ccccc2)c2nc3c([nH]2)C(=O)c2ccccc2C3=O)cc1)c1nc2c([nH]1)C(=O)c1ccccc1C2=O
TGI (XF 498 CNS): 24.3 µM
TGI (LXFL 529 NSCLC): 24.6 µM

COc1nc2ccc(Cl)c(C(O)c3ccccc3)c2nc1OC (stereo not given)
TGI (NCI/ADR-RES ovarian): 63.4 µM

COC(Cc1cc(C(O)(c2ccc(C(C)(C)C)cc2)c2cc(CC(OC)(c3cc(C(OC)(c4ccc(C(C)(C)C)cc4)c4ccc(C(C)(C)C)cc4)c(C)cc3C)c3cc(C(OC)(c4ccc(C(C)(C)C)cc4)c4ccc(C(C)(C)C)cc4)c(C)cc3C)c(C)cc2C)c(C)cc1C)(c1cc(C(OC)(c2ccc(C(C)(C)C)cc2)c2ccc(C(C)(C)C)cc2)c(C)cc1C)c1cc(C(OC)(c2ccc(C(C)(C)C)cc2)c2ccc(C(C)(C)C)cc2)c(C)cc1C
TGI (NCI/ADR-RES ovarian): > 75 µM

COc1cc(-c2n/c(=C\c3c(O)[nH]c4ccccc34)cc3c2=Nc2ccccc2-3)ccc1F
GI50 (NCI/ADR-RES ovarian): 5.78 µM
TGI (NCI/ADR-RES ovarian): 43 µM

CCCC[n+]1ccn(-c2nc3ccccc3n2C)c1
TGI (LXFL 529 NSCLC): > 100 µM
TGI (RXF-631 renal): > 100 µM

CN(CCO)CCC1COc2ccccc2O1 (stereo not given)
TGI (NCI/ADR-RES ovarian): > 10 µM
